27 molecules from ChEMBL document CHEMBL4049463, “Repurposing Suzuki Coupling Reagents as a Directed Fragment Library Targeting Serine Hydrolases and Related Enzymes” (J Med Chem, 2017) can be followed below.

Assay [1] deals with Autotaxin (Mus musculus) (UniProt Q9R1E6).
Assay [2] has as its target Autotaxin (Mus musculus, UniProt Q9R1E6). Nature of the assay: Inhibition of mouse ATX using TG-mTMP as substrate after 2 hrs by fluorometric analysis.

For orientation: IC50 means the midpoint of a concentration-inhibition curve. A low value points to greater potency in that assay. In turn, `OB(O)c1ccc(Cl)cc1` had a concentration for half-maximal inhibition (IC50) in assay [1] of 3.16 µM.

As for `O=C(O)c1ccc2cc[nH]c2c1`, in assay [1], the concentration for half-maximal inhibition (IC50) is 794 µM. This IC50 is about 250-fold higher than that of the molecule before.

In assay [1], `COc1ccc(B(O)O)cc1` showed an IC50 of 5.01 µM.

In the case of `OB(O)c1cccc(O)c1`, in assay [1], the IC50 was 10 µM.

As for `Oc1ccc(-n2ccnc2)cc1`, the half-inhibitory concentration (IC50) in assay [1] was 501 µM.

As for `OB(O)c1ccc(O)cc1`, the IC50 in assay [1] was 10 µM.

Regarding `COc1ccccc1B(O)O`, in assay [1], the IC50 was 3.98 µM.

For the molecule `OCc1cccc(B(O)O)c1`, the half-maximal inhibitory concentration (IC50) in assay [1] is 12.6 µM.

In assay [1], `Oc1ccc2nonc2c1` had an IC50 of 200 µM.

Molecule `NCc1cccc(O)c1` gave a concentration for half-maximal inhibition (IC50) in assay [1] of 1260 µM. This IC50 is about 6.3-fold higher than that of the molecule before.

For `OB(O)c1ccc2cc[nH]c2c1`, the midpoint of inhibition in assay [1], the IC50, lay at 2 µM.

Molecule `OB(O)c1cccc(CCN2CCN(c3nc(O)c(Cc4ccc(Cl)c(Cl)c4)s3)CC2)c1` had an IC50 in assay [2] of 0.0126 µM.

Take `Nc1cccc(-c2nnc[nH]2)c1`: half-maximal inhibition in assay [1] (IC50) was put at 251 µM.

Molecule `OB(O)c1ccccc1OCc1cccc(Cl)c1` showed an IC50 in assay [1] of 1 µM.

As to `OB(O)c1ccc2nonc2c1`, half-maximal inhibition in assay [1] (IC50) required 10 µM.

In assay [1], `CS(=O)(=O)c1ccc(B(O)O)cc1` gave a half-inhibitory concentration (IC50) of 5.01 µM.

For `COc1cc(COc2ccc(B(O)O)cc2Cl)cc(OC)c1`, in assay [1], the IC50 is 0.316 µM.

In the case of `N#CCc1cccc(B(O)O)c1`, the IC50 in assay [1] was 5.01 µM.

As to `OB(O)c1ccc(CCCN2CCC(c3nc(O)c(Cc4ccc(Cl)c(Cl)c4)s3)CC2)cc1`, in assay [2], the 50% inhibitory concentration (IC50) is 0.02 µM.

Turning to `COCCc1ccc(OCc2cccc(B(O)O)c2)cc1`, the IC50 in assay [1] was 0.501 µM.

For `OB(O)c1ccccc1CCN1CCN(c2nc(O)c(Cc3ccc(Cl)c(Cl)c3)s2)CC1`, in assay [2], it took 0.631 µM to reach half-maximal inhibition (IC50).

In turn, `N#C/C=C/c1cccc(B(O)O)c1` gave a half-maximal inhibitory concentration (IC50) in assay [1] of 1.58 µM.

`N#Cc1cccc(B(O)O)c1` had a concentration for half-maximal inhibition (IC50) in assay [1] of 20 µM. This IC50 lies about 13-fold higher than the previous one.

`COc1cccc(B(O)O)c1` showed an IC50 in assay [1] of 20 µM.

In turn, `N#Cc1ccc(B(O)O)cc1` had a concentration for half-maximal inhibition (IC50) in assay [1] of 5.01 µM.

For the molecule `CS(=O)(=O)c1ccc(O)cc1`, in assay [1], half-maximal inhibition (IC50) was put at 631 µM.

`OB(O)c1ccccc1` [PHENYLBORONIC ACID] showed an IC50 in assay [1] of 10 µM.
